Source: patent publication US8273769B2, “Phenoxy acetic acid derivatives” (Merck Serono SA, priority 2009, dated 2012)

Experiment: In vivo pharmacokinetic evaluation in rat
Design: species or system Sprague Dawley male rats
Description: In order to study the pharmacokinetic (PK) profile of test compounds in vivo, Sprague Dawley male rats or C57BL/6 female mice were dosed intravenously or after oral gavage. For both species, test compounds were dosed in solution at 1 mg/kg for i.v. route (10% ethanol, 10% N,N-dimethylacetamide, 30% propylene glycol, 50% water, v/v) and in suspension at 5 mg/kg (0.5% carboxymethylcellulose suspension, containing 0.25% Tween 20 in water) for oral gavage. PK profile in rat was obtained from 3 animals per dosing route and mouse PK profile was determined from 3 animals for each time points. The volume of administration was 2 mL/kg for i.v. dosing in both species and either 5 mL/kg (rat) or 10 mL/kg (mouse) for oral gavage. Blood samples (100 μL/time point) were collected at 0.083 (5 min), 0.25, 0.5, 1, 4, 7 and 24 hours post-dose for i.v. dosing, and at 0.5, 1, 4, 7 and 24 h for oral dosing, into heparin-Li+ containing tubes. For rats, all blood samples were collected trough a catheter in the carotid artery (placed in the artery the day before the experiment), under light isoflurane anesthesia, and stored on ice until centrifugation and plasma isolation. […] For bioanalysis, samples were processed by protein precipitation (acetonitrile, formic acid 0.1%, addition of 3 volumes) after addition of one internal standard and analysed using a sensitive and selective LC/MS/MS method. An aliquot of the resulting supernatant was subject to LC/MS/MS analysis using a reverse phase column (Waters Xterra, C8, (3.5 μm particle size, 2.1×50 mm) and a short gradient (1 min) from (Solvent A) 85% water, 15% acetonitrile and 0.1% formic acid to (Solvent B) 90% acetonitrile, 10% water and 0.1% formic acid followed by isocratic conditions of Solvent B for 3.5 min at 0.4 mL/min. Column effluent was monitored using a Sciex API 4000 triple quadrupole mass spectrometer with a Turbo V electrospray ion source. Unknown concentrations of test compounds were determined using a calibration curve ranging from 1 to 3000 ng/mL.

Structure (SMILES): CCCS(=O)(=O)c1cccc(C#Cc2cc(Cl)ccc2OCC(=O)O)c1 [Example 17, (4-chloro-2-{[3-(propylsulfonyl)phenyl]ethynyl}phenoxy)acetic acid]
- Oral bioavailability: 28%
- Clearance iv (1 mg/Kg) (i.v. 1 mg/Kg): 6.7 mL/min/kg
- AUC (male, Sprague Dawley, plasma, oral gavage 5 mg/Kg): 3700 ng·h/mL
